# Reference: PubChem BioAssay (NCI)
#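 Interpolation was linear, between the two tested concentrations surrounding the appropriate level; five concentrations were tested over 48 hours in 96-well plates. At the GI50, growth is halved. The concentration for full growth arrest is given as TGI.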
# Legend:
# Assay in all cases: growth of human tumour cells (NCI), 48 h
# PC-3 prostate = test system: PC-3 prostate
# HT29 colon = test system: HT29 colon
# HL-60(TB) leukemia = test system: HL-60(TB) leukemia
# MOLT-4 leukemia = test system: MOLT-4 leukemia
# SNB-75 CNS = test system: SNB-75 CNS
# MDA-MB-435 = test system: MDA-MB-435
# MDA-MB-468 breast = test system: MDA-MB-468 breast
# UACC-257 melanoma = test system: UACC-257 melanoma
# 786-0 renal = test system: 786-0 renal
# M14 melanoma = test system: M14 melanoma
# SR leukemia = test system: SR leukemia
# NCI-H23 lung = test system: NCI-H23 lung
# NCI-H522 lung = test system: NCI-H522 lung
# NCI-H226 lung = test system: NCI-H226 lung
# SW-620 colon = test system: SW-620 colon
# MALME-3M melanoma = test system: MALME-3M melanoma
# NCI-H460 lung = test system: NCI-H460 lung
# SF-295 CNS = test system: SF-295 CNS
# RPMI-8226 leukemia = test system: RPMI-8226 leukemia
# HS 578T breast = test system: HS 578T breast
# OVCAR-5 ovarian = test system: OVCAR-5 ovarian
# T-47D breast = test system: T-47D breast
# SK-OV-3 ovarian = test system: SK-OV-3 ovarian
# TK-10 renal = test system: TK-10 renal
# CAKI-1 renal = test system: CAKI-1 renal
# HCT-116 colon = test system: HCT-116 colon
# COLO 205 colon = test system: COLO 205 colon
# RXF 393 renal = test system: RXF 393 renal
# MDA-MB-231 breast = test system: MDA-MB-231 breast
# KM12 colon = test system: KM12 colon
# SN12C renal = test system: SN12C renal
# A498 renal = test system: A498 renal
# A549 NSCLC = test system: A549 NSCLC
# SK-MEL-28 melanoma = test system: SK-MEL-28 melanoma
# SK-MEL-2 melanoma = test system: SK-MEL-2 melanoma
# MCF7 breast = test system: MCF7 breast
# U251 CNS = test system: U251 CNS
# SF-268 CNS = test system: SF-268 CNS
# SF-539 CNS = test system: SF-539 CNS
# UACC-62 melanoma = test system: UACC-62 melanoma
# OVCAR-4 ovarian = test system: OVCAR-4 ovarian
# LOX IMVI melanoma = test system: LOX IMVI melanoma
# HOP-92 NSCLC = test system: HOP-92 NSCLC
# DU-145 prostate = test system: DU-145 prostate
# HOP-62 NSCLC = test system: HOP-62 NSCLC
# ACHN renal = test system: ACHN renal
# OVCAR-8 ovarian = test system: OVCAR-8 ovarian
# EKVX NSCLC = test system: EKVX NSCLC
# HCT-15 colon = test system: HCT-15 colon
# BT-549 breast = test system: BT-549 breast
# IGROV1 ovarian = test system: IGROV1 ovarian
# K-562 leukemia = test system: K-562 leukemia
# SK-MEL-5 melanoma = test system: SK-MEL-5 melanoma
# OVCAR-3 ovarian = test system: OVCAR-3 ovarian
# CCRF-CEM leukemia = test system: CCRF-CEM leukemia
# UO-31 renal = test system: UO-31 renal
# NCI/ADR-RES ovarian = test system: NCI/ADR-RES ovarian
# HCC-2998 colon = test system: HCC-2998 colon
# SNB-19 CNS = test system: SNB-19 CNS
smiles,measurement,setting,value
O=C(COc1ccc(/C=C2/C(=O)Nc3ccc(Cl)cc32)cc1)Nc1ccc(Br)cc1,GI50,PC-3 prostate,1790 nM
same,TGI,PC-3 prostate,6.25 µM
same,GI50,HT29 colon,2870 nM
same,TGI,HT29 colon,9.07 µM
same,GI50,HL-60(TB) leukemia,3.51 µM
same,TGI,HL-60(TB) leukemia,14.9 µM
same,GI50,MOLT-4 leukemia,2610 nM
same,TGI,MOLT-4 leukemia,8.48 µM
same,GI50,SNB-75 CNS,5.09 µM
same,TGI,SNB-75 CNS,20.3 µM
same,GI50,MDA-MB-435,3.45 µM
same,TGI,MDA-MB-435,13.5 µM
same,GI50,MDA-MB-468 breast,10.3 µM
same,TGI,MDA-MB-468 breast,22 µM
same,GI50,UACC-257 melanoma,4.3 µM
same,TGI,UACC-257 melanoma,16.5 µM
same,GI50,786-0 renal,1780 nM
same,TGI,786-0 renal,3.21 µM
same,GI50,M14 melanoma,1670 nM
same,TGI,M14 melanoma,5.81 µM
same,GI50,SR leukemia,2930 nM
same,TGI,SR leukemia,12.1 µM
same,GI50,NCI-H23 lung,1660 nM
same,TGI,NCI-H23 lung,3.46 µM
same,GI50,NCI-H522 lung,1710 nM
same,TGI,NCI-H522 lung,4.64 µM
same,GI50,NCI-H226 lung,1550 nM
same,TGI,NCI-H226 lung,3.81 µM
same,GI50,SW-620 colon,1890 nM
same,TGI,SW-620 colon,3.82 µM
same,GI50,MALME-3M melanoma,1500 nM
same,TGI,MALME-3M melanoma,3.68 µM
same,GI50,NCI-H460 lung,1910 nM
same,TGI,NCI-H460 lung,3.79 µM
same,GI50,SF-295 CNS,1740 nM
same,TGI,SF-295 CNS,3.8 µM
same,GI50,RPMI-8226 leukemia,4.04 µM
same,TGI,RPMI-8226 leukemia,14.8 µM
same,GI50,HS 578T breast,2020 nM
same,TGI,HS 578T breast,6.68 µM
same,GI50,OVCAR-5 ovarian,2290 nM
same,TGI,OVCAR-5 ovarian,7.61 µM
same,GI50,T-47D breast,1930 nM
same,TGI,T-47D breast,7.56 µM
same,GI50,SK-OV-3 ovarian,1490 nM
same,TGI,SK-OV-3 ovarian,4.12 µM
same,GI50,TK-10 renal,2740 nM
same,TGI,TK-10 renal,5.51 µM
same,GI50,CAKI-1 renal,1470 nM
same,TGI,CAKI-1 renal,3.58 µM
same,GI50,HCT-116 colon,1550 nM
same,TGI,HCT-116 colon,3.09 µM
same,GI50,COLO 205 colon,4.61 µM
same,TGI,COLO 205 colon,17.1 µM
same,GI50,RXF 393 renal,1590 nM
same,TGI,RXF 393 renal,3.24 µM
same,GI50,MDA-MB-231 breast,1360 nM
same,TGI,MDA-MB-231 breast,2880 nM
same,GI50,KM12 colon,2470 nM
same,TGI,KM12 colon,11.6 µM
same,GI50,SN12C renal,1750 nM
same,TGI,SN12C renal,4.39 µM
same,GI50,A498 renal,7.37 µM
same,TGI,A498 renal,19.6 µM
same,GI50,A549 NSCLC,1520 nM
same,TGI,A549 NSCLC,3.28 µM
same,GI50,SK-MEL-28 melanoma,1980 nM
same,TGI,SK-MEL-28 melanoma,5.02 µM
same,GI50,SK-MEL-2 melanoma,2580 nM
same,TGI,SK-MEL-2 melanoma,10.8 µM
same,GI50,MCF7 breast,2030 nM
same,TGI,MCF7 breast,7.86 µM
same,GI50,U251 CNS,1750 nM
same,TGI,U251 CNS,3.29 µM
same,GI50,SF-268 CNS,2420 nM
same,TGI,SF-268 CNS,10.8 µM
same,GI50,SF-539 CNS,1590 nM
same,TGI,SF-539 CNS,3.04 µM
same,GI50,UACC-62 melanoma,1350 nM
same,TGI,UACC-62 melanoma,5.72 µM
same,GI50,OVCAR-4 ovarian,1850 nM
same,TGI,OVCAR-4 ovarian,3.93 µM
same,GI50,LOX IMVI melanoma,1360 nM
same,TGI,LOX IMVI melanoma,2640 nM
same,GI50,HOP-92 NSCLC,1610 nM
same,TGI,HOP-92 NSCLC,3.83 µM
same,GI50,DU-145 prostate,2380 nM
same,TGI,DU-145 prostate,6.52 µM
same,GI50,HOP-62 NSCLC,1620 nM
same,TGI,HOP-62 NSCLC,3.79 µM
same,GI50,ACHN renal,1200 nM
same,TGI,ACHN renal,2470 nM
same,GI50,OVCAR-8 ovarian,1870 nM
same,TGI,OVCAR-8 ovarian,3.93 µM
same,GI50,EKVX NSCLC,1920 nM
same,TGI,EKVX NSCLC,5.99 µM
same,GI50,HCT-15 colon,1400 nM
same,TGI,HCT-15 colon,10.1 µM
same,GI50,BT-549 breast,1430 nM
same,TGI,BT-549 breast,4.75 µM
same,GI50,IGROV1 ovarian,2240 nM
same,TGI,IGROV1 ovarian,8.14 µM
same,GI50,K-562 leukemia,2110 nM
same,TGI,K-562 leukemia,12.7 µM
same,GI50,SK-MEL-5 melanoma,2140 nM
same,TGI,SK-MEL-5 melanoma,5.47 µM
same,GI50,OVCAR-3 ovarian,1700 nM
same,TGI,OVCAR-3 ovarian,3.18 µM
same,GI50,CCRF-CEM leukemia,2110 nM
same,TGI,CCRF-CEM leukemia,5.54 µM
same,GI50,UO-31 renal,221 nM
same,TGI,UO-31 renal,2270 nM
same,GI50,NCI/ADR-RES ovarian,1770 nM
same,TGI,NCI/ADR-RES ovarian,4.04 µM
same,GI50,HCC-2998 colon,4.46 µM
same,TGI,HCC-2998 colon,17.6 µM
same,GI50,SNB-19 CNS,2720 nM
same,TGI,SNB-19 CNS,8.08 µM
